# Legend:
# [1] = alcohols, acetone, ethyl acetate, toluene, diethyl ether, dioxane, hexane and n-heptane
# [2] = low levels of volatiles (water and residual solvents) by KF and TGA
smiles,measurement,setting,value
"C#CCN[C@@H]1CCc2ccccc21 [rasagiline base, R(+)-N-propargyl-1-aminoindan]",solubility in polar and non-polar organic solvents,[1],freely soluble
same,hygroscopicity,[2],not hygroscopic

# Source: US8334409B2, “Process for purifying rasagiline base” (Teva Pharmaceutical Industries, Ltd., priority 2008, dated 2012)
